From patent US12628858B2, “Therapy for colorectal and small intestine cancers” (Cornell University, priority 2019, dated 2026)

System: Tumors from APC-/- mice
Test: 13C isotopic tracing in APC-/- tumors ex vivo (LC-MS/MS)
Type: cell-based, mouse
Conditions: 10 min ex vivo

Compound | F1P 13C-labeled at all six positions (M+6), percentage of labeling [%] | percentage of fully labeled lactate [%]
O=[13C]([13CH2]O)[13C@@H](O)[13C@H](O)[13C@H](O)[13CH2]O [^13C-fructose, D-[U-^13C6]-Fructose] | 47.1 | 
O=[13CH][13C@H](O)[13C@@H](O)[13C@H](O)[13C@H](O)[13CH2]O [^13C-glucose, D-[U-^13C6]-Glucose] |  | 30.2
